Measurements as given in patent publication US9018175B2 (Takeda GmbH, priority 2009, dated 2015).

Key:
PDE4B1 = biological target: T1, PDE4B1 (Homo sapiens, UniProt Q07343); test: Inhibition of PDE4B1 activity (SPA, [3H]cAMP); format: biochemical; settings: recombinant PDE4B1 expressed in SF21 cells; 0.5 pM [sic] cAMP; values given as bins; read-out: PDE4B1 inhibitory values measured as −logIC50 (converted)
T1 construct: made in house; host or cells: SF21 insect cells (baculovirus; pCR-Bac vector)
T1 sequence (Q07343 whole entry): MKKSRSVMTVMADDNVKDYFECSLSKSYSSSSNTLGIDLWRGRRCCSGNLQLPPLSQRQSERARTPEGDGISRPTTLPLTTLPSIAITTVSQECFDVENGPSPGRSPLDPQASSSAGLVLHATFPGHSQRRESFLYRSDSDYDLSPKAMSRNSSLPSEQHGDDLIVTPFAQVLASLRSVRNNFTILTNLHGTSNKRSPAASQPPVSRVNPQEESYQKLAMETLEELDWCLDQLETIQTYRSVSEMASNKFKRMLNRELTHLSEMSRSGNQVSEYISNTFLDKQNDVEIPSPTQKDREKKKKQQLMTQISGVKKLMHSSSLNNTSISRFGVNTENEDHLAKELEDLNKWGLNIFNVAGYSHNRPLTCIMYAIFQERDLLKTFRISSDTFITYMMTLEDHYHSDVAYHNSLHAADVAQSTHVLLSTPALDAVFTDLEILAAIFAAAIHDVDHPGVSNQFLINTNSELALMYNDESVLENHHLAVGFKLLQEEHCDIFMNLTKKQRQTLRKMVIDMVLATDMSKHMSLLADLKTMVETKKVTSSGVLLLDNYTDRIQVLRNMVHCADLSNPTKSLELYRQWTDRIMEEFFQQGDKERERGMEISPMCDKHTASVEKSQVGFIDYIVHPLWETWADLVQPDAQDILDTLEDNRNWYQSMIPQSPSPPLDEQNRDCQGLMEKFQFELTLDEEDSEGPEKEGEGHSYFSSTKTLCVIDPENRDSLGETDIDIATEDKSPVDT
Description: The PDE4B1 (GB no. L20966) was a gift of Prof. M. Conti (Stanford University, USA). It was amplified from the original plasmid (pCMV5) via PCR with primers Rb18 (5′-[…]-3′) and Rb10 (5′-[…]-3′) and cloned into the pCR-Bac vector (Invitrogen, Groningen, NL).
The recombinant baculovirus was prepared by means of homologous recombination in SF9 insect cells. The expression plasmids were cotransfected with Baculo-Gold DNA (Pharmingen, Hamburg) using a standard protocol (Pharmingen, Hamburg). Wt virus-free recombinant virus supernatants were selected using plaque assay methods. After that, high-titre virus supernatants were prepared by amplifying 3 times. PDE4B1 was expressed in SF21 cells by infecting 2×10^6 cells/ml with an MOI (multiplicity of infection) between 1 and 10 in the serum-free medium Insect Express Sf9-S2 (PAA, Pasching, Austria). The cells were cultured at 28° C. for 48-72 hours, after which they were pelleted for 5-10 min at 1000×g and 4° C.
The SF21 insect cells were resuspended, at a concentration of approx. 10^7 cells/ml, in ice-cold (4° C.) homogenization buffer (20 mM Tris, pH 8.2, containing the following additions: 140 mM NaCl, 3.8 mM KCl, 1 mM EGTA, 1 mM MgCl2, 10 mM e-mercaptoethanol, 2 mM benzamidine, 0.4 mM Pefablock, 10 pM leupeptin, 10 pM pepstatin A, 5 pM trypsin inhibitor) and disrupted by ultrasonication. The homogenate was then centrifuged for 10 min at 1000, g and the supernatant was stored at −80° C. until subsequent use (see below). The protein content was determined by the Bradford method (BioRad, Munich) using BSA as the standard.
PDEB1 activities were measured in a 96-well platform using SPA (scintillation proximity assay) yttrium silicate beads (RPNQ1050 from GE Healthcare). In a first step the PDE activity operates hydrolysis of either [^3H] cAMP (substrate) into [^3H] 5′AMP. In a second step substrate and product are distinguished following addition of SPA yttrium silicate beads. Indeed, in the presence of zinc sulphate the linear [^3H] […] Close proximity of bound [^3H] […] The test volume is 100 pl and contains 20 mM Tris buffer (pH 7.4), 0.1 mg/ml of BSA, 5 mM Mg^2+, […] (including about 50,000 cpm of [3H]cAMP), 1 pl of the respective substance dilution in DMSO and sufficient recombinant PDE (1000, g supernatant, see above) to ensure that 10-20% of the cAMP is converted under the said experimental conditions. […] After a preincubation of 5 min at 37° C., the reaction is started by adding the substrate (cAMP) and the assays are incubated for a further 15 min; after that, they are stopped by adding SPA beads (50 pl). In accordance with the manufacturer's instructions, the SPA beads had previously been resuspended in water, but were then diluted 1:3 (v/v) in water; the diluted solution also contains 3 mM IBMX to ensure a complete PDE activity stop. After the beads have been sedimented (>30 min), the MTP's are analyzed in commercially available luminescence detection devices. The corresponding IC50 values of the compounds for the inhibition of PDE4B1 activity are determined from the concentration-effect curves by means of non-linear regression.

human PDE5 = biological target: T2, human PDE5 (Homo sapiens, UniProt O76074); test: Inhibition of PDE5 activity (SPA, [3H]cGMP, platelet lysate); format: biochemical; settings: PDE5 from human platelet lysate; values given as bins; read-out: PDE5A inhibitory values measured as −logIC50 (converted)
T2 construct: from tissue; host or cells: human platelets from fresh donor blood (10,000 g supernatant of sonicated platelets)
Description: As a source for human PDE5, platelets are used. For that purpose, 150 ml fresh blood from human donors anticoagulated with citrate [final concentration 0.3% (w/v)] is centrifuged at 200 g for 10 min to obtain the so-called platelet-rich-plasma (PRP) as a supernatant. 1/10 volume of ACD solution (85 mM Na3-citrate, 111 mM D-glucose, 71 mM citric acid, pH 4.4) is added to 9/10 volume of PRP. After centrifugation (1,400 g, 10 min) the cell pellet is resuspended in 3 ml homogenization buffer (NaCl 140 mM, KCl 3.8 mM, EGTA (ethylene glycol tetraacetic acid) 1 mM, MgCl2 1 mM, Tris-HCl 20 mM, beta-mercaptoethanol 1 mM, pH 8.2) plus protease-inhibitor mix giving rise to the final concentrations of 0.5 mM Pefablock (Roche), 10 μM Leupeptin, 5 μM Trypsininhibitor, 2 mM Benzamidin and 10 μM Pepstatin A. The suspension is sonified and thereafter centrifuged for 15 min at 10,000 g. The resulting supernatant (platelet lysate) is used for enzymatic testings.
PDE5 activities were measured in a 96-well platform using SPA (scintillation proximity assay) yttrium silicate beads (RPNQ1050 from GE Healthcare). In a first step the PDE activity operates hydrolysis of either [^3H] cGMP (substrate) into [^3H] 5′GMP. In a second step substrate and product are distinguished following addition of SPA yttrium silicate beads. Indeed, in the presence of zinc sulphate the linear [^3H] […] Close proximity of bound [^3H] […] The test volume is 100 pl and contains 20 mM Tris buffer (pH 7.4), 0.1 mg of BSA (bovine serum albumin)/ml, 5 mM Mg^2+, 1 μM motapizone (PDE3 Inhibitor), 10 nM PDE2 inhibitor 2-(3,4-dimethoxybenzyl)-7-[(1R,2R)-2-hydroxy-1-(2-phenylethyl)propyl]-5-methylimidazo[5,1-f][1,2,4]triazin-4(3H)-one, […] (cyclic guanosine monophosphate) (including about 50,000 cpm of [3H]cGMP as a tracer), 1 pl of the respective compound dilution in dimethylsulfoxide (DMSO) and sufficient PDE5-containing platelet lysat (10,000, g supernatant, see above) to ensure that 10-20 wt % of the cGMP is converted under the said experimental conditions. […] After a preincubation of 5 min at 37° C., the reaction is started by adding the substrate (cGMP) and the assay is incubated for a further 15 min; after that, it is stopped by adding SPA beads (50 pl). In accordance with the manufacturer's instructions, the SPA beads had previously been resuspended in water, but are then diluted 1:3 (v/v) in water; the diluted solution also contains 3 mM […]3-isobutyl-1-methylxanthine (IBMX) to ensure a complete PDE activity stop. After the beads have been sedimented (>30 min), the MTP's are analyzed in commercially available luminescence detection devices. The corresponding IC50 values of the compounds for the inhibition of PDE activity are determined from the concentration-effect curves by means of non-linear regression.

With `CCOc1cc2c(cc1OC)C(c1ccc(C(=O)N3CCC(n4c(=O)c5sc(-c6ccccc6)cc5n(Cc5csc(C)n5)c4=O)CC3)cc1)=N[C@@H]1CCSC[C@H]21` [Example 10, 3-[1-({4-[(4aR,10bR)-9-ethoxy-8-methoxy-3,4,4a,10b-tetrahydro-1H-thiopyrano[4,3-c]isoquinolin-6-yl]phenyl}carbonyl)piperidin-4-yl]-1-[(2-methyl-1,3-thiazol-4-yl)methyl]-6-phenylthieno[3,2-d]pyrimidine-2,4(1H,3H)-dione] the IC50 (PDE4B1) was 1 to 10 nM and the IC50 (human PDE5) was > 100 nM.

For `CCOc1cc2c(cc1OC)C(c1ccc(C(=O)N3CCC(n4c(=O)c5sc(-c6cc(OC)ccc6OC)cc5n(Cc5nnn(CC)n5)c4=O)CC3)cc1)=N[C@@H]1CCSC[C@H]21` [Example 36, 6-(2,5-dimethoxyphenyl)-3-[1-({4-[(4aR,10bR)-9-ethoxy-8-methoxy-3,4,4a,10b-tetrahydro-1H-thiopyrano[4,3-c]isoquinolin-6-yl]phenyl}carbonyl)piperidin-4-yl]-1-[(2-ethyl-2H-tetrazol-5-yl)methyl]thieno[3,2-d]pyrimidine-2,4(1H,3H)-dione], the IC50 (PDE4B1) was > 10 nM and the IC50 (human PDE5) was < 10 nM.

For `CCOc1cc2c(cc1OC)C(c1ccc(C(=O)N3CCC(n4c(=O)c5sc(-c6ccccc6)cc5n(Cc5cnc(C)s5)c4=O)CC3)cc1)=N[C@@H]1CCSC[C@H]21` [Example 20, 3-[1-({4-[(4aR,10bR)-9-ethoxy-8-methoxy-3,4,4a,10b-tetrahydro-1H-thiopyrano[4,3-c]isoquinolin-6-yl]phenyl}carbonyl)piperidin-4-yl]-1-[(2-methyl-1,3-thiazol-5-yl)methyl]-6-phenylthieno[3,2-d]pyrimidine-2,4(1H,3H)-dione], the IC50 (PDE4B1) was 1 to 10 nM and the IC50 (human PDE5) was < 10 nM.

With `CCOc1cc2c(cc1OC)C(c1cccc(C(=O)N3CCC(n4c(=O)c5sc(-c6ccc(F)cc6OC)cc5n(Cc5nnn(CC)n5)c4=O)CC3)c1)=N[C@@H]1CCSC[C@H]21` [Example 33, 3-[1-({3-[(4aR,10bR)-9-ethoxy-8-methoxy-3,4,4a,10b-tetrahydro-1H-thiopyrano[4,3-c]isoquinolin-6-yl]phenyl}carbonyl)piperidin-4-yl]-1-[(2-ethyl-2H-tetrazol-5-yl)methyl]-6-(4-fluoro-2-methoxyphenyl)thieno[3,2-d]pyrimidine-2,4(1H,3H)-dione] the IC50 (PDE4B1) was > 10 nM and the IC50 (human PDE5) was 10 to 100 nM.

With `CCOc1cc2c(cc1OC)C(c1ccc(C(=O)N3CCC(n4c(=O)c5sc(-c6ccc7c(c6)OCO7)cc5n(Cc5nnn(CC)n5)c4=O)CC3)cc1)=N[C@@H]1CCSC[C@H]21` [Example 30, 6-(1,3-benzodioxol-5-yl)-3-[1-({4-[(4aR,10bR)-9-ethoxy-8-methoxy-3,4,4a,10b-tetrahydro-1H-thiopyrano[4,3-c]isoquinolin-6-yl]phenyl}carbonyl)piperidin-4-yl]-1-[(2-ethyl-2H-tetrazol-5-yl)methyl]thieno[3,2-d]pyrimidine-2,4(1H,3H)-dione] the IC50 (PDE4B1) was 1 to 10 nM and the IC50 (human PDE5) was < 10 nM.

`CCOc1cc2c(cc1OC)C(c1ccc(C(=O)N3CCC(n4c(=O)c5sc(-c6ccccc6)cc5n(Cc5nnn(CC)n5)c4=O)CC3)cc1)=NC1CC[S+]([O-])CC21` (single isomer, unassigned) [Example 24] was tested, and the IC50 (PDE4B1) was > 10 nM and the IC50 (human PDE5) was < 10 nM.

With `CCOc1cc2c(cc1OC)C(c1ccc(C(=O)N3CCC(n4c(=O)c5sc(-c6ccccc6)cc5n(Cc5nccn5C)c4=O)CC3)cc1)=N[C@@H]1CCSC[C@H]21` [Example 53, 3-[1-({4-[(4aR,10bR)-9-ethoxy-8-methoxy-3,4,4a,10b-tetrahydro-1H-thiopyrano[4,3-c]isoquinolin-6-yl]phenyl}carbonyl)piperidin-4-yl]-1-[(1-methyl-1H-imidazol-2-yl)methyl]-6-phenylthieno[3,2-d]pyrimidine-2,4(1H,3H)-dione] the IC50 (PDE4B1) was < 1 nM and the IC50 (human PDE5) was > 100 nM.

With `CCOc1cc2c(cc1OC)C(c1ccc(C(=O)N3CCC(n4c(=O)c5sc(-c6ccccc6)cc5n(Cc5nc(CCCOC)no5)c4=O)CC3)cc1)=N[C@@H]1CCSC[C@H]21` [Example 50, 3-[1-({4-[(4aR,10bR)-9-ethoxy-8-methoxy-3,4,4a,10b-tetrahydro-1H-thiopyrano[4,3-c]isoquinolin-6-yl]phenyl}carbonyl)piperidin-4-yl]-1-{[3-(3-methoxypropyl)-1,2,4-oxadiazol-5-yl]methyl}-6-phenylthieno[3,2-d]pyrimidine-2,4(1H,3H)-dione] the IC50 (PDE4B1) was < 1 nM and the IC50 (human PDE5) was 10 to 100 nM.

`CCOc1cc2c(cc1OC)C(c1cccc(C(=O)N3CCC(n4c(=O)c5sc(-c6ccccc6F)cc5n(Cc5nnn(CC)n5)c4=O)CC3)c1)=N[C@@H]1CCSC[C@H]21` [Example 39] was tested, and the IC50 (PDE4B1) was 1 to 10 nM and the IC50 (human PDE5) was < 10 nM.

For `CCOc1cc2c(cc1OC)C(c1ccc(C(=O)N3CCC(n4c(=O)c5sc(-c6ccccc6)cc5n(Cc5nc(COC)no5)c4=O)CC3)cc1)=N[C@@H]1CCSC[C@H]21` [Example 15, 3-(1-{4-[(4aR,10bR)-9-ethoxy-8-methoxy-3,4,4a,10b-tetrahydro-1H-thiopyrano[4,3-c]isoquinolin-6-yl]benzoyl}piperidin-4-yl)-1-{[3-(methoxymethyl)-1,2,4-oxadiazol-5-yl]methyl}-6-phenylthieno[3,2-d]pyrimidine-2,4(1H,3H)-dione], the IC50 (PDE4B1) was 1 to 10 nM and the IC50 (human PDE5) was < 10 nM.
